Experimental data reported in the supplement of paper PMC5662764.
± gives the standard deviation of the averaged measurements.

How the values were obtained:
Test in all cases: normalised growth rate inhibition (GR value) relative to DMSO control (GR (1 = untreated growth, 0 = cytostasis, <0 = cytotoxic)); higher = less growth inhibition
Settings in all cases: 72 h
HS578T = test system: HS578T
Method: (§1)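 Breast cancer cell lines (BT-20, Hs 578T, MCF 10A, MCF7, MDA-MB-231, SK-BR-3) were plated in 384-well plates and treated 24 h later with drugs at six concentrations (0.04-10 µM). Viable cells were counted by Hoechst/dead-cell-stain imaging at 0 and 72 h. Counts were normalised to DMSO controls on the same plate to give the relative cell count and the growth-rate inhibition (GR) value; technical plate triplicates were averaged for each biological replicate.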

SKBR3 = test system: SKBR3
Method: as §1

MDAMB231 = test system: MDAMB231
Method: as §1

MCF10A = test system: MCF10A
Method: as §1

MCF7 = test system: MCF7
Method: as §1

BT20 = test system: BT20
Method: as §1

| Structure (SMILES) | normalised growth rate inhibition (HS578T; 0.04 µM) | normalised growth rate inhibition (HS578T; 0.12 µM) | normalised growth rate inhibition (HS578T; 0.37 µM) | normalised growth rate inhibition (HS578T; 1.11 µM) | normalised growth rate inhibition (HS578T; 3.33 µM) | normalised growth rate inhibition (HS578T; 10 µM) | normalised growth rate inhibition (SKBR3; 0.04 µM) | normalised growth rate inhibition (SKBR3; 0.12 µM) | normalised growth rate inhibition (SKBR3; 0.37 µM) | normalised growth rate inhibition (SKBR3; 1.11 µM) | normalised growth rate inhibition (SKBR3; 3.33 µM) | normalised growth rate inhibition (SKBR3; 10 µM) | normalised growth rate inhibition (MDAMB231; 0.04 µM) | normalised growth rate inhibition (MDAMB231; 0.12 µM) | normalised growth rate inhibition (MDAMB231; 0.37 µM) | normalised growth rate inhibition (MDAMB231; 1.11 µM) | normalised growth rate inhibition (MDAMB231; 3.33 µM) | normalised growth rate inhibition (MDAMB231; 10 µM) | normalised growth rate inhibition (MCF10A; 0.04 µM) | normalised growth rate inhibition (MCF10A; 0.12 µM) | normalised growth rate inhibition (MCF10A; 0.37 µM) | normalised growth rate inhibition (MCF10A; 1.11 µM) | normalised growth rate inhibition (MCF10A; 3.33 µM) | normalised growth rate inhibition (MCF10A; 10 µM) | normalised growth rate inhibition (MCF7; 0.04 µM) | normalised growth rate inhibition (MCF7; 0.12 µM) | normalised growth rate inhibition (MCF7; 0.37 µM) | normalised growth rate inhibition (MCF7; 1.11 µM) | normalised growth rate inhibition (MCF7; 3.33 µM) | normalised growth rate inhibition (MCF7; 10 µM) | normalised growth rate inhibition (BT20; 0.04 µM) | normalised growth rate inhibition (BT20; 0.12 µM) | normalised growth rate inhibition (BT20; 0.37 µM) | normalised growth rate inhibition (BT20; 1.11 µM) | normalised growth rate inhibition (BT20; 3.33 µM) | normalised growth rate inhibition (BT20; 10 µM) |
| --- | --- | --- | --- | --- | --- | --- | --- | --- | --- | --- | --- | --- | --- | --- | --- | --- | --- | --- | --- | --- | --- | --- | --- | --- | --- | --- | --- | --- | --- | --- | --- | --- | --- | --- | --- | --- |
| NC1(c2ccc(-c3nc4ccn5c(=O)[nH]nc5c4cc3-c3ccccc3)cc2)CCC1 [MK-2206] | 0.8934 ± 0.0036 | 0.803 ± 0.035 | 0.577 ± 0.21 | 0.665 ± 0.064 | 0.638 ± 0.053 | 0.458 ± 0.29 | 0.761 ± 0.12 | 0.603 ± 0.084 | 0.484 ± 0.06 | 0.429 ± 0.048 | 0.283 ± 0.059 | -0.0652 ± 0.015 | 0.968 ± 0.039 | 0.904 ± 0.039 | 0.821 ± 0.05 | 0.806 ± 0.061 | 0.757 ± 0.051 | 0.391 ± 0.35 | 0.99 ± 0.038 | 0.972 ± 0.036 | 0.705 ± 0.22 | 0.892 ± 0.067 | 0.833 ± 0.082 | 0.429 ± 0.09 | 0.616 ± 0.12 | 0.502 ± 0.086 | 0.278 ± 0.096 | 0.291 ± 0.12 | 0.176 ± 0.093 | -0.104 ± 0.14 | 0.974 ± 0.087 | 0.902 ± 0.12 | 0.678 ± 0.13 | 0.583 ± 0.17 | 0.453 ± 0.2 | 0.08 ± 0.29 |
| COc1ccc(-c2ccc3c(N4CCOC[C@@H]4C)nc(N4CCOC[C@@H]4C)nc3n2)cc1CO [AZD-8055] | 0.255 ± 0.041 | 0.187 ± 0.031 | 0.176 ± 0.022 | 0.16 ± 0.023 | 0.111 ± 0.073 | -0.22 ± 0.29 | -0.0402 ± 0.13 | -0.0898 ± 0.17 | -0.0997 ± 0.15 | -0.12 ± 0.1 | -0.137 ± 0.12 | -0.363 ± 0.15 | 0.484 ± 0.046 | 0.317 ± 0.048 | 0.245 ± 0.0043 | 0.224 ± 0.015 | 0.146 ± 0.099 | -0.0657 ± 0.25 | 0.494 ± 0.1 | 0.296 ± 0.088 | 0.205 ± 0.048 | 0.175 ± 0.027 | 0.146 ± 0.012 | -0.102 ± 0.39 | 0.0296 ± 0.035 | -0.00352 ± 0.044 | -0.0152 ± 0.064 | -0.00932 ± 0.072 | -0.0344 ± 0.067 | -0.216 ± 0.23 | 0.3 ± 0.14 | 0.179 ± 0.12 | 0.0816 ± 0.063 | 0.0556 ± 0.071 | -0.00646 ± 0.086 | -0.306 ± 0.36 |
| Cc1ccc(F)c(NC(=O)Nc2ccc(-c3cccc4[nH]nc(N)c34)cc2)c1 [linifanib] | 0.995 ± 0.011 | 0.979 ± 0.011 | 0.971 ± 0.025 | 0.969 ± 0.015 | 0.9497 ± 0.0069 | 0.701 ± 0.13 | 1.11 ± 0.046 | 1.08 ± 0.025 | 1.11 ± 0.043 | 1.1 ± 0.078 | 1.09 ± 0.078 | 0.232 ± 0.072 | 1.08 ± 0.014 | 1.09 ± 0.03 | 1.08 ± 0.045 | 1.07 ± 0.053 | 1.06 ± 0.045 | 0.192 ± 0.29 | 1.039 ± 0.0077 | 1.032 ± 0.0048 | 1.02 ± 0.012 | 1.02 ± 0.014 | 0.994 ± 0.029 | 0.716 ± 0.24 | 1.07 ± 0.12 | 0.996 ± 0.14 | 1.01 ± 0.12 | 0.939 ± 0.079 | 0.874 ± 0.061 | 0.0601 ± 0.092 | 1.09 ± 0.014 | 1.07 ± 0.039 | 1.07 ± 0.032 | 1.08 ± 0.026 | 1.03 ± 0.011 | 0.544 ± 0.37 |
| CN1CC[C@H](c2c(O)cc(O)c3c(=O)cc(-c4ccccc4Cl)oc23)[C@H](O)C1 [alvocidib] | 0.48 ± 0.23 | -0.156 ± 0.1 | -0.206 ± 0.082 | -0.196 ± 0.11 | -0.193 ± 0.098 | -0.188 ± 0.11 | 0.102 ± 0.038 | -0.287 ± 0.2 | -0.32 ± 0.26 | -0.367 ± 0.21 | -0.357 ± 0.22 | -0.391 ± 0.21 | 0.184 ± 0.25 | -0.239 ± 0.12 | -0.273 ± 0.13 | -0.273 ± 0.16 | -0.282 ± 0.14 | -0.287 ± 0.16 | 0.197 ± 0.27 | -0.2 ± 0.16 | -0.288 ± 0.23 | -0.281 ± 0.24 | -0.281 ± 0.25 | -0.263 ± 0.22 | -0.0866 ± 0.19 | -0.328 ± 0.037 | -0.335 ± 0.068 | -0.359 ± 0.057 | -0.361 ± 0.077 | -0.364 ± 0.07 | 0.324 ± 0.32 | -0.0878 ± 0.2 | -0.251 ± 0.083 | -0.35 ± 0.19 | -0.339 ± 0.2 | -0.365 ± 0.21 |
| CCCS(=O)(=O)Nc1ccc(F)c(C(=O)c2c[nH]c3ncc(-c4ccc(Cl)cc4)cc23)c1F [vemurafenib] | 1.04 ± 0.014 | 1.03 ± 0.011 | 1.03 ± 0.038 | 1.01 ± 0.051 | 0.89 ± 0.075 | 0.548 ± 0.033 | 1.05 ± 0.069 | 1.03 ± 0.044 | 1.03 ± 0.04 | 1.01 ± 0.042 | 0.951 ± 0.046 | 0.805 ± 0.032 | 0.975 ± 0.042 | 0.965 ± 0.03 | 0.964 ± 0.025 | 0.897 ± 0.061 | 0.827 ± 0.064 | 0.422 ± 0.042 | 0.9898 ± 0.0042 | 0.9881 ± 0.0069 | 0.9871 ± 0.0051 | 0.955 ± 0.045 | 0.798 ± 0.14 | 0.462 ± 0.096 | 0.978 ± 0.017 | 1.02 ± 0.024 | 1.03 ± 0.015 | 1.01 ± 0.046 | 0.998 ± 0.022 | 0.858 ± 0.086 | 0.971 ± 0.051 | 0.968 ± 0.052 | 0.964 ± 0.035 | 0.949 ± 0.057 | 0.87 ± 0.031 | 0.582 ± 0.032 |
| Cn1cnc2c(F)c(Nc3ccc(Br)cc3Cl)c(C(=O)NOCCO)cc21 [selumetinib] | 0.636 ± 0.094 | 0.53 ± 0.1 | 0.471 ± 0.068 | 0.428 ± 0.055 | 0.369 ± 0.036 | 0.26 ± 0.056 | 1.139 ± 0.0015 | 1.037 ± 0.0086 | 1.044 ± 0.0095 | 1.02 ± 0.052 | 1.02 ± 0.033 | 0.969 ± 0.034 | 0.846 ± 0.078 | 0.702 ± 0.097 | 0.545 ± 0.088 | 0.458 ± 0.068 | 0.36 ± 0.068 | 0.2 ± 0.083 | 0.598 ± 0.026 | 0.455 ± 0.053 | 0.36 ± 0.056 | 0.281 ± 0.053 | 0.25 ± 0.041 | 0.177 ± 0.042 | 0.867 ± 0.13 | 0.696 ± 0.071 | 0.568 ± 0.062 | 0.543 ± 0.072 | 0.575 ± 0.063 | 0.524 ± 0.024 | 1.11 ± 0.084 | 1.03 ± 0.099 | 0.999 ± 0.059 | 1.01 ± 0.061 | 0.974 ± 0.093 | 0.975 ± 0.081 |
